Patent US7217701B2, “Intracellular calcium concentration increase inhibitors” (Katsuhiko Mikoshiba, priority 2001, dated 2007)
Read-outs that look alike come from different tables or passages of the source.

Experiments:
[1] = test system: capacitative calcium entry in cell strain deficient of IP3 receptors produced from DT40; assay: Inhibitory activity against capacitative calcium entry (fura-2 fluorescence ratio); assay type: cell-based, chickens; conditions: Gallus gallus
Procedure: Fura-2 acetoxymethylester was introduced to the cell strain deficient of IP3 receptors produced from the cultivated cell strain DT40 from chickens. The intracellular calcium concentration was measured by the measurement of the fluorescence of 510 nm obtained at 2-wavelength excitation of 340 nm and 380 nm, and its fluorescence ratio F=340/380.
Intracellular calcium store was depleted by activating tapsigalguine (inhibitor of the endoplasmic reticulum calcium pump) without the presence of the calcium ion in the extracellular fluid.
(§1) 2-aminoethyl diphenylborinate was used as a comparative compound.

[2] = molecular target: T1, calcium release by IP3 (IP3 receptor) (Mus musculus, UniProt P11881); assay: Inhibitory activity against calcium release by IP3 (cerebellum microsomes, fura2); assay type: biochemical
T1 construct: from tissue; host or cells: mouse cerebellum microsomes
T1 sequence (P11881 whole entry): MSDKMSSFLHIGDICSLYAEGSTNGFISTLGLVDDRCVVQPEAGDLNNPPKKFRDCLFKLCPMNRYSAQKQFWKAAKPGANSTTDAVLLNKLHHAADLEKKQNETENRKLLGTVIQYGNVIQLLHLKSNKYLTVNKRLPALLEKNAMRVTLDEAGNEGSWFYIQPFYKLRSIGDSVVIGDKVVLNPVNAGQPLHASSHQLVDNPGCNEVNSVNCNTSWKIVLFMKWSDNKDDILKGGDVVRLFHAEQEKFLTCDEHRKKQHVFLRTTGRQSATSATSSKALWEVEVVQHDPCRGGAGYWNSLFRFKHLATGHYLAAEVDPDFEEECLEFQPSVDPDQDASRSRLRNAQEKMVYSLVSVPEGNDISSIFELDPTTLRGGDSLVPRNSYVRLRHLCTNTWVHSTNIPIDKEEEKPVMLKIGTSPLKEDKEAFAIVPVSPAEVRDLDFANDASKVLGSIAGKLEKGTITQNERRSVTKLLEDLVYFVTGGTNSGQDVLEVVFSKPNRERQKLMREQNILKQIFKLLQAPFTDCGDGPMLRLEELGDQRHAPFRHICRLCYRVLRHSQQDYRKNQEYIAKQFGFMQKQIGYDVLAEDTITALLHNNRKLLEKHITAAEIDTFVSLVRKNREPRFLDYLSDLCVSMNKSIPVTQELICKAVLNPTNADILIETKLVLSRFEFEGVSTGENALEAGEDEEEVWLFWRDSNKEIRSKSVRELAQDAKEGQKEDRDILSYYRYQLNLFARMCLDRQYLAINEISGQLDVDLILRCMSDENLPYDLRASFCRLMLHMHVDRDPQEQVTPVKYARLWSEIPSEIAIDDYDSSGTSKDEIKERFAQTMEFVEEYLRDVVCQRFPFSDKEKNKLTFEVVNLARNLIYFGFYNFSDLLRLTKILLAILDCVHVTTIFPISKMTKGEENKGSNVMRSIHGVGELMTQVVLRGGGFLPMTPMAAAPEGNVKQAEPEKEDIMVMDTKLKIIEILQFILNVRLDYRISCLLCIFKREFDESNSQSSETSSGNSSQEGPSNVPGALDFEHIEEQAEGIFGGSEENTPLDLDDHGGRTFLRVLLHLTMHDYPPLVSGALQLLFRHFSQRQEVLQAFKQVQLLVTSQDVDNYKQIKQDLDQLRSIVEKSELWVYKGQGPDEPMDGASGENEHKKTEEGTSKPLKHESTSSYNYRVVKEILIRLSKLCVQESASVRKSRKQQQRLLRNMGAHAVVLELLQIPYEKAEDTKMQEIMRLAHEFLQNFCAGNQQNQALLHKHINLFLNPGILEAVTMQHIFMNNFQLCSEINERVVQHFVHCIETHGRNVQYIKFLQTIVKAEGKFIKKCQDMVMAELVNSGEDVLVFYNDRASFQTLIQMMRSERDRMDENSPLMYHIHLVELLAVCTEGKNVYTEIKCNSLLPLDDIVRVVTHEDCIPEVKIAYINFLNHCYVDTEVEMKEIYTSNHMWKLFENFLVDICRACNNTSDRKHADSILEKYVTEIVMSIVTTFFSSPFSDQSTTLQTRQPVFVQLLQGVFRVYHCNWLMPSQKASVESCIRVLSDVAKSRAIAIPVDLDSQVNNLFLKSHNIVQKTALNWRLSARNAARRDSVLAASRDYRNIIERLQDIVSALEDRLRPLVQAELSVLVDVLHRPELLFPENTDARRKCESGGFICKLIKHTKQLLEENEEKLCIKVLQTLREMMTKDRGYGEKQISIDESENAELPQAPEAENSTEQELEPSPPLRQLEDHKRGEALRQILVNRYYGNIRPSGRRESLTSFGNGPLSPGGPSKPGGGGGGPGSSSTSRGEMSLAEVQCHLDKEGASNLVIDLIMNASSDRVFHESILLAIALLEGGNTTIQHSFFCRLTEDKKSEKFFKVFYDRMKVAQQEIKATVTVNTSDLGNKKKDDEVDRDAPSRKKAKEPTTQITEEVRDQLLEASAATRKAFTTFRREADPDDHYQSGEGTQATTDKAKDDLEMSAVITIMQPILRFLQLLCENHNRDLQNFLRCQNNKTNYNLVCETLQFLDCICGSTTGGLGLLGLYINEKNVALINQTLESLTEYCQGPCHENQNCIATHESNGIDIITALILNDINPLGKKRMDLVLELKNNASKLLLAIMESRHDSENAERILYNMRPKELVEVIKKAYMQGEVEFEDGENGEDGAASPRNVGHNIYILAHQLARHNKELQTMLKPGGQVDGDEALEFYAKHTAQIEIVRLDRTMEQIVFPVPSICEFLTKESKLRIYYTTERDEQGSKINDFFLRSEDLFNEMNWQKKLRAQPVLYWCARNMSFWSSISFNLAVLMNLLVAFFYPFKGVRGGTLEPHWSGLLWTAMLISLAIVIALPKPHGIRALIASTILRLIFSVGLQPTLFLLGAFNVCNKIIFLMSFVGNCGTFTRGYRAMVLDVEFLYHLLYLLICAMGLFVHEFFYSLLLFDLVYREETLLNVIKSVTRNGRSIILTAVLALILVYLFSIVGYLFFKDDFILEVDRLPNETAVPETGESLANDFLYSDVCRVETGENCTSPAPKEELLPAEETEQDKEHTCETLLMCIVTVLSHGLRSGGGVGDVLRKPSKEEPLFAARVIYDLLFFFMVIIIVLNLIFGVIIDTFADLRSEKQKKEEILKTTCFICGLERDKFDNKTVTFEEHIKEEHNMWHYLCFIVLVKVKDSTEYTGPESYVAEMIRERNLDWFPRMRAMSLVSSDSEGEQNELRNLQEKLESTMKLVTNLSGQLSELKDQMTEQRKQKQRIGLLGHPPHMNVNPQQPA
Procedure: Furthermore, the supernatant was centrifuged (105,000 g, for 60 minutes). […] Then IP3 was added thereto, and the released calcium was measured by the measurement of the fluorescence of 500 nm obtained at 2-wavelength excitation of 340 nm and 380 nm, and the fluorescence ratio F=340/380.
as §1

[3] = increase rate of intracellular calcium concentration on adding 2 mM calcium chloride after store depletion with tapsigalguine, IP3 receptor-deficient DT40 cells, read-out: IC50
[4] = mouse cerebellum microsomes, calcium released with 30 nM of IP3 defined as 100%, read-out: IC50

| SMILES | IC50 [1, 3] [µM] | IC50 [2, 4] [µM] | other results |
| --- | --- | --- | --- |
| NCCOB(C1CCCC1)C1CCCC1 [(25), 2-aminoethyl dicyclopentylborate] | 0.66 |  |  |
| OB(c1ccc(Cl)cc1)c1ccc(COCc2ccccc2)cc1 [(3), (4-chlorophenyl)(4-benzyloxymethylphenyl)borate] |  | 3 |  |
| CCOC(=O)N1CCC(NCC(OB(c2ccc(C)c(Cl)c2)c2ccc(C)c(Cl)c2)c2ccccc2)CC1 (stereo not shown) [(47), 1-phenyl-2-(1-(ethoxycarbonyl)-piperidine-4-ylamino)ethyl bis(3-chloro-4-methylphenyl)borate] |  | 3.8 |  |
| NCCOB(c1ccccc1)c1ccc(COCc2ccc(B(OCCN)c3ccccc3)cc2)cc1 [Compound (90), bis[4-[(2-aminoethoxy)phenylboryl]benzyl]ether] | 0.059 | 6 |  |
| NCCOB(c1ccccc1)c1ccccc1 [Comparative Compound, 2-aminoethyl diphenylborinate, reference compound] |  |  | IC50 ([1]; DT40): 5 µM; IC50 [2]: 20 µM |
| Cc1ccc(B(OC(CN(C)C)CN(C)C)c2ccc(C)c(Cl)c2)cc1Cl [(60), 1-(dimethylaminomethyl)-2-dimethylaminoethyl bis(3-chloro-4-methylphenyl)borate] | 0.35 |  |  |

Continued, in another order:

| IC50 [1, 3] [µM] | IC50 [2, 4] [µM] | SMILES | other results |
| --- | --- | --- | --- |
| 0.13 |  | Cc1ccc(B(OC(c2ccc(C(F)(F)F)cc2)c2ccccn2)c2ccc(C)c(Cl)c2)cc1Cl (stereo not shown) [(62), 1-(4-trifluoromethylphenyl)-1-(2-pyridyl)methyl bis(3-chloro-4-methylphenyl)borate] |  |
| 0.63 | 3.6 | Cc1ccc(B(OC(C)c2ccccn2)c2ccc(C)c(Cl)c2)cc1Cl (stereo not shown) [Compound (53), 1-(2-pyridyl)ethyl bis(3-chloro-4-methylphenyl)borate] |  |
|  | 2.6 | Cc1ccc(B(OCCN)c2ccc(C)c(Cl)c2)cc1Cl [(30), 2-aminoethyl bis(3-chloro-4-methylphenyl)borate] |  |
|  | 4.5 | CC(C)(C)c1ccc(B(OCCN)c2ccc(Cl)cc2)cc1 [(84), 2-aminoethyl (4-chlorophenyl)(4-(1,1′-dimethylethyl)phenyl)borate] |  |
